Measurements reported in patent US20100035926A1, “PYRAZOLE DERIVATIVES AS NON-STEROIDAL GLUCOCORTICOID RECEPTOR LIGANDS” (priority 2006, published 2010).
Where two headings read alike, the source gives them in different places.

Key:
GR [1] = target: T1, GR (Homo sapiens, UniProt P04150); experiment: GR Agonist Assay - MMTV Assay (A549 MMTV cells, renilla luciferase reporter); type: cell-based; conditions: 6 h, agonists, read-out: average maximum asymptote in the MMTV agonist assay
T1 construct: endogenous in cells; host or cells: A549 (human lung carcinoma, ECACC No. 86012804), stably transfected with reporter plasmids only
T1 sequence (P04150 1-777): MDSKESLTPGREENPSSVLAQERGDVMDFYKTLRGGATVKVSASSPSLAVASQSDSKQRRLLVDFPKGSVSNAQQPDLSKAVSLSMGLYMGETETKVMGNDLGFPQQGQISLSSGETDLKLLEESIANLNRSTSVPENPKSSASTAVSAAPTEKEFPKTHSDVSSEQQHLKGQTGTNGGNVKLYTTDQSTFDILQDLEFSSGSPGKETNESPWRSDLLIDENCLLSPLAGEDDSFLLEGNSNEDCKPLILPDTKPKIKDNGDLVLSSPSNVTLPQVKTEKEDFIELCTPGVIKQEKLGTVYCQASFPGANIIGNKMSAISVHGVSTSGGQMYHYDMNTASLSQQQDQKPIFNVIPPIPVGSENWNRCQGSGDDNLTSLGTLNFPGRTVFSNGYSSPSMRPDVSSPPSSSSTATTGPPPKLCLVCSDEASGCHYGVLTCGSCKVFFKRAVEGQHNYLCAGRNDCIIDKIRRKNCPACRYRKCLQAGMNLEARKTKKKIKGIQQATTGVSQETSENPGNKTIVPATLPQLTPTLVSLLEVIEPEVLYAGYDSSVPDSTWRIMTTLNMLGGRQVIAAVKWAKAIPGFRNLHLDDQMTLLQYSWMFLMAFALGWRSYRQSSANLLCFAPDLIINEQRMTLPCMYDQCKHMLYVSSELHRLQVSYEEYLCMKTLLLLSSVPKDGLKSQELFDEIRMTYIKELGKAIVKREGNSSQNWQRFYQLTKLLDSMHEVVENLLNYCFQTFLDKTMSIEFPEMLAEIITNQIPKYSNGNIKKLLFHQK
Outline: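 Stably transfected A549 MMTV cells carry a GR-driven luciferase reporter. Cells at 0.1×10^6/ml in DMEM with 10% FCS and 25 mM HEPES were added to wells containing compound. After detection reagent, plates were held about 15 mins at room temperature and luminescence was read.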

GR [2] = target: T1, GR; experiment: GR Functional Assay - NFκB Assay (A549 SPAP cells, TNFα stimulated); type: cell-based; conditions: for Emax: agonists, read-out: average maximum asymptote in the NFkB assay
Outline: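 Stably transfected A549 SPAP cells at 0.16×10^6/ml in DMEM with 10% FCS were added to compound and stimulated with TNFα to drive NFκB-dependent SPAP expression. After 1 hr equilibration at room temperature, SPAP was read colorimetrically with pNPP in diethanolamine buffer, pH 9.8.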

[3] = at least once in the NFkB assay, A549 SPAP cells, read-out: pIC50 in the NFkB assay (converted)
[4] = at least once, examples listed as agonists in NFkB and MMTV assays, read-out: potency pIC50 in the NFKB assay (converted)

Emax (GR [1]) [%]	Emax (GR [2]; A549 SPAP cells) [%]	IC50 (GR [2]; [3]) [nM]	IC50 (GR [2]; [4]) [nM]	SMILES
≥ 40	≥ 40	< 1000	< 316	CCN(CC(O)(CNC(=O)c1cnn(-c2ccc(F)cc2)c1N)C(F)(F)F)C(=O)c1cccc(F)c1F (racemic) [Example 5 (racemic), 5-Amino-N-(2-{[[(2,3-difluorophenyl)carbonyl](ethyl)amino]methyl}-3,3,3-trifluoro-2-hydroxypropyl)-1-(4-fluorophenyl)-1H-pyrazole-4-carboxamide]
≥ 40	≥ 40	< 1000	< 316	Nc1c(C(=O)NCC(O)(CN(CCF)C(=O)c2ccccc2)C(F)(F)F)cnn1-c1ccc(F)cc1 (racemic) [Example 1 (racemic), 5-Amino-1-(4-fluorophenyl)-N-(3,3,3-trifluoro-2-{[(2-fluoroethyl)(phenylcarbonyl)amino]methyl}-2-hydroxypropyl)-1H-pyrazole-4-carboxamide]
≥ 40	≥ 40	< 1000	< 316	Nc1c(C(=O)NCC(O)(CN(CCF)C(=O)c2ccccc2F)C(F)(F)F)cnn1-c1ccc(F)cc1 (racemic) [Example 2 (racemic), 5-Amino-1-(4-fluorophenyl)-N-[3,3,3-trifluoro-2-([(2-fluoroethyl)[(2-fluorophenyl)carbonyl]amino]methyl)-2-hydroxypropyl]-1H-pyrazole-4-carboxamide]
